In ChEMBL document CHEMBL1145738, “Peptidyl aldehyde inhibitors of calpain incorporating P2-proline mimetics” (Bioorg Med Chem Lett, 2003) one finds Ki and Selectivity ratio data, which are given here for five molecules.

Assay [1] has as its target T1, Calpain small subunit 1 (Sus scrofa, UniProt P04574).
T1 sequence (P04574 whole entry): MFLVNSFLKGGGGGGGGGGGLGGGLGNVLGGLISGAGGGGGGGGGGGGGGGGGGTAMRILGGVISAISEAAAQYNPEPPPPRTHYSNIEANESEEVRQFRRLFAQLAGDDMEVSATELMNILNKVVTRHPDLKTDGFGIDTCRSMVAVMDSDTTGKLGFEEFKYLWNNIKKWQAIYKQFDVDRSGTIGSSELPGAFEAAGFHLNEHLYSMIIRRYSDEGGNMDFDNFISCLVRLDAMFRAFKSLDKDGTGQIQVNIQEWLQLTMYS
Kind of assay: Compound tested for inhibition of porcine Calpain 1.

In assay [2] the target is T1, Calpain small subunit 1. The experiment in a line: Compound tested for inhibition of porcine calpain I.
Assay [3] has as its target T2, Cathepsin B (Homo sapiens, UniProt P07858). Kind of assay: (§1) Selectivity ratio of cathepsin B to calpain I.
Assay [4] deals with T2, Cathepsin B. The experiment in a line: Compound tested for inhibition of human liver cathepsin B.
Assay [5] concerns the target T2, Cathepsin B. Kind of assay: Compound tested for inhibition of human liver Cathepsin B.
Assay [6] is described as follows: as §1.

Non-standard residues stand in square brackets, D forms with d. Residues, ends and D or L forms follow the SMILES beside them. ξ: configuration not given here. *: point of attachment. Tos = Cc1ccc(S(=O)(=O)*)cc1; ξF = NC(Cc1ccccc1)C(=O)O; Pip = O=C(O)[CH]1CCCCN1; Aze = O=C(O)[CH]1CCN1

As for `Cc1ccc(S(=O)(=O)N2CCSC2C(=O)NC(C=O)Cc2ccccc2)cc1` (stereo not drawn), the affinity on Calpain small subunit 1 [1] corresponds to a Ki of 70 nM.
Regarding `Cc1ccc(S(=O)(=O)N[C@@H](CC(C)C)C(=O)NC(C=O)Cc2ccccc2)cc1` (stereo partly drawn) (Tos-Leu-[ξF]-aldehyde), the figures for the Ki at Calpain small subunit 1 [2] and at Cathepsin B [4] were 20 nM and 70 nM, respectively. Further, the Selectivity ratio on Cathepsin B [3] came out at 4.
With `Cc1ccc(S(=O)(=O)N2CCCC2C(=O)NC(C=O)Cc2ccccc2)cc1` (stereo not drawn) (Tos-Pro-Phe-aldehyde; configuration not given here), the Ki (commonly a measure of affinity in units of concentration, obtained from inhibition or displacement) at Cathepsin B [5] amounted to 12.1 µM; on Calpain small subunit 1 [1], 80 nM. In addition, the Selectivity ratio in assay [6] came to 151.
For the molecule `Cc1ccc(S(=O)(=O)N2CCC2C(=O)NC(C=O)Cc2ccccc2)cc1` (stereo not drawn) (Tos-[Aze]-Phe-aldehyde; configuration not given here), the Ki was determined as 2.75 µM at Cathepsin B [5] and 250 nM at Calpain small subunit 1 [1]. The Selectivity ratio in assay [6] stood at 11.
Turning to `Cc1ccc(S(=O)(=O)N2CCCCC2C(=O)NC(C=O)Cc2ccccc2)cc1` (stereo not drawn) (Tos-[Pip]-Phe-aldehyde; configuration not given here), the Ki was 540 nM at Calpain small subunit 1 [2] and 5260 nM at Cathepsin B [4]. The Selectivity ratio at Cathepsin B [3] was 10.
